Each structure is given as a SMILES string.

Data on seven molecules can be found in US9562053B2, “Benzo-fused heterocyclic derivatives useful as agonists of GPR120” (Janssen Pharmaceutica NV, priority 2013, dated 2017).

Assay [1] deals with T1, short form of the GPR120 receptor (Homo sapiens, UniProt Q5NUL3).
T1 construct: host or cells: PathHunter CHO-K1 GPR120S β-Arrestin Cell Line
T1 sequence (Q5NUL3 1-361): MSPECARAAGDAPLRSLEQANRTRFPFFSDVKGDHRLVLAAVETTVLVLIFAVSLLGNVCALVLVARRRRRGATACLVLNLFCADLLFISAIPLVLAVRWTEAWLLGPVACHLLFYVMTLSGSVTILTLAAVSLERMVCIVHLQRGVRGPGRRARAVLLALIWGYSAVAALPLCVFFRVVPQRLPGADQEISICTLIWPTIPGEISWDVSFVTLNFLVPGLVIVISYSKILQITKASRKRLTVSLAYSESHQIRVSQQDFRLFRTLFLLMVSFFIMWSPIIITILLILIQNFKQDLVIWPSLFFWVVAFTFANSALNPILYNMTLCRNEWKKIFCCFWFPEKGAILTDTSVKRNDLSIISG
As to the kind of experiment: Human GPR120 DiscoveRx PathHunter Beta-Arrestin Assay, Procedure β-arrestin B (5000 cells/well). It counts as cell-based. An outline of the steps: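 PathHunter CHO-K1 cells expressing short-form GPR120 (NM_181745), seeded at 5000 cells/well, were exposed to compound for 90 min at 37 °C in HBSS/20 mM HEPES/0.1% BSA, pH 7.4. Dilutions ran 25–0.012 µM before addition to wells. β-arrestin recruitment was read by EFC β-gal luminescence, and EC50 was fitted to % activity versus positive control with Hill slope fixed at 1.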

The subject of assay [2] is C57bl/6J Mice. As to the kind of experiment: GPR120 C57bl6 Mouse IPGTT. It is filed as in vivo. The procedure: Male, C57bl/6J Mice were ordered in at 8 weeks of age from Jackson Labs. Individual mice weighed anywhere in the range of 25-30 grams on study day. The mice were fasted, with removal of food occurring at 7 am on the morning of the study. Animals were moved into the room at 10:00 am, to give them time to acclimate. Glucose (insulin syringes) was drawn up either the night before or the morning of the study. Glucose was dosed (IP) at 1.5 g/kg at 7.5 ml/kg (20% glucose straight TEKNOVA, 250 ml sterile bottle w/catalogue number G0525). Test compounds were kept spinning and were only drawn into the syringes prior to study commencement. Animals were bled via tail snip to determine basal glucose levels prior to dosing of treatments. An Ascensia BREEZE Blood Glucose Monitoring System by Bayer (using unique 10-test disks) was used for determining glucose levels. The bleeds started at approximately 12:45 pm and dosing started, at 1-minute intervals, immediately after. All groups were dosed 30 minutes prior to glucose administration at a dose volume of 10 ml/kg (the dose volume was calculated separately for each individual animal). Thirty minutes after the first dose animals were bled again for a second baseline, or T=0, and immediately dosed with glucose via an i.p. injection. The exact dose volume for glucose was also calculated separately for each individual animal. Glucose measurements were taken at −30 min prior to compound dose, at t=0 (immediately prior to glucose dose), and at 15, 30, 45, 60, 90 min post glucose dose.
Glucose values were entered into an Excel sheet and graphed in GraphPad Prism. The following were calculated from Prism: Change from −30 to 0 BSLN Glucose, Raw Glucose AUC −30 to 90 min, Delta Glucose AUC −30 to 90 min, Raw Glucose AUC 0 to 90 min, Delta Glucose AUC 0 to 90 min.

In the case of `Cc1cc2cc(OC(F)(F)F)cc(COc3ccc(CCC(=O)O)c(C)c3C)c2o1` [Compound 36, 3-(2,3-Dimethyl-4-{[2-methyl-5-(trifluoromethoxy)-1-benzofuran-7-yl]methoxy}phenyl)propanoic acid], the EC50 in assay [1] was determined as 69 nM. Besides, the “Dose Responses C57 IPGTT” value is −7% in assay [2] (3 mg/kg), −36% in assay [2] (10 mg/kg) and −46% in assay [2] (30 mg/kg).
As for `CCc1cc2cc(Cl)cc(COc3ccc(CCC(=O)O)c4c3CCC4)c2o1` [Compound 54, 3-{7-[(5-Chloro-2-ethyl-1-benzofuran-7-yl)methoxy]-2,3-dihydro-1H-inden-4-yl}propanoic acid], it took 150 nM to reach a half-maximal effect in assay [1] (EC50).
In assay [1], `CCc1cc2cc(OC(F)(F)F)cc(COc3ccc(CCC(=O)O)c(C)c3C)c2o1` [Compound 12, 3-(4-{[2-Ethyl-5-(trifluoromethoxy)-1-benzofuran-7-yl]methoxy}-2,3-dimethylphenyl)propanoic acid] came in with an EC50 of 70 nM.
The molecule `CCc1cc2ccc(OC(F)F)c(COc3ccc(CCC(=O)O)c(C)c3C)c2o1` [Compound 70, 3-(4-{[6-(Difluoromethoxy)-2-ethyl-1-benzofuran-7-yl]methoxy}-2,3-dimethylphenyl)propanoic acid] came in with a concentration for a half-maximal effect (EC50) in assay [1] of 1290 nM.
Consider `Cc1cc2cc(F)cc(COc3ccc(CCC(=O)O)c(C)c3C)c2o1` [Compound 2, 3-{4-[(5-Fluoro-2-methyl-1-benzofuran-7-yl)methoxy]-2,3-dimethylphenyl}propanoic acid], for which the “Dose Responses C57 IPGTT” value in assay [2] (1 mg/kg) is recorded as −3%; in assay [2] (3 mg/kg), −20%; in assay [2] (10 mg/kg), −27%; in assay [2] (30 mg/kg) it was −53%.
As for `CCc1cc2cc(Cl)c(C)c(COc3ccc(CCC(=O)O)c(C)c3C)c2o1` [Compound 40, 3-{4-[(5-Chloro-2-ethyl-6-methyl-1-benzofuran-7-yl)methoxy]-2,3-dimethylphenyl}propanoic acid], the results for the “Dose Responses C57 IPGTT” value in assay [2] (1 mg/kg), in assay [2] (3 mg/kg) and in assay [2] (10 mg/kg) were −28%, 13% and −34%, respectively.
In turn, `CCc1cc2cc(Cl)cc(COc3ccc(CCC(=O)O)c(C)c3C)c2o1` [Compound 11, 3-{4-[(5-Chloro-2-ethyl-1-benzofuran-7-yl)methoxy]-2,3-dimethylphenyl}propanoic acid] gave an EC50 in assay [1] of 94 nM. In other words, the double-digit nanomolar range.

As usually defined, the EC50 is the concentration needed to bring the measured effect to its halfway point. Higher therefore signals a need for much substance.
